Measurements reported in patent US20250136619A1, “HETEROBIFUNCTIONAL COMPOUNDS AND THEIR USE IN TREATING DISEASE” (HALDA THERAPEUTICS OPCO, INC., priority 2021, published 2025).

How the values were obtained:
androgen receptor = androgen receptor (Homo sapiens, UniProt P10275); assay: Radioligand ([3H]methyltrienolone) assay for binding affinity to androgen receptor; conditions: cell cytosol, 1 nM [3H]methyltrienolone
Method: Fractions of cell cytosol ([…]) were incubated for 24 hr at 4° C. with 1 nM [^3H]methyltrienolone in the absence or presence of the test compound in a buffer containing 25 mM Hepes-Tris (pH 7.4), 1 mM EDTA, 10 mM Na2MoO4, 2 mM DTT, 5 μM triamcinolone acetonide, and 10% glycerol. Nonspecific binding was determined in the presence of 1 μM testosterone. Following incubation, the samples were filtered rapidly under vacuum through glass fiber filters (GF/B, Packard) presoaked with 0.3% PEI and rinsed several times with ice-cold 50 mM Tris —HCl using a 96-sample cell harvester (Unifilter, Packard). The filters were dried then counted for radioactivity in a scintillation counter (Topcount, Packard) using a scintillation cocktail (Microscint 0, Packard). The results are expressed as a percent inhibition of the control radioligand specific binding. The standard reference compound is testosterone, which is tested in each experiment at several concentrations to obtain a competition curve from which its IC50 is calculated.

BRD4-BD1 = BRD4-BD1 (Homo sapiens (Human), UniProt O60885); assay: bromoKdELECT assay for binding affinity to BRD4-BD1
Method: (§1) Compounds were tested using a bromoKdELECT assay. T7 phage strains displaying bromodomains were grown in parallel in 24-well blocks in an E. coli host derived from the BL21 strain. E. coli were grown to log-phase and infected with T7 phage from a frozen stock (multiplicity of infection=0.4) and incubated with shaking at 32° C. until lysis (90-150 minutes). The lysates were centrifuged (5,000×g) and filtered (0.2 μm) to remove cell debris. Streptavidin-coated magnetic beads were treated with biotinylated small molecule or acetylated peptide ligands for 30 minutes at room temperature to generate affinity resins for bromodomain assays. The liganded beads were blocked with excess biotin and washed with blocking buffer (SeaBlock (Pierce), 1% BSA, 0.05% Tween 20, 1 mM DTT) to remove unbound ligand and to reduce nonspecific phage binding. Binding reactions were assembled by combining bromodomains, liganded affinity beads, and test compounds in 1×binding buffer (17% SeaBlock, 0.33×PBS, 0.04% Tween 20, 0.02% BSA, 0.004% Sodium azide, 7.4 mM DTT). Test compounds were prepared as 1000X stocks in 100% DMSO. Kds were determined using an 11-point 3-fold compound dilution series with one DMSO control point. All compounds for Kd measurements are distributed by acoustic transfer (non-contact dispensing) in 100% DMSO. The compounds were then diluted directly into the assays such that the final concentration of DMSO was 0.09%. All reactions performed in polypropylene 384-well plates. Each was a final volume of 0.02 ml. The assay plates were incubated at room temperature with shaking for 1 hour and the affinity beads were washed with wash buffer (1×PBS, 0.05% Tween 20). The beads were then resuspended in elution buffer (1×PBS, 0.05% Tween 20, 2 μM non-biotinylated affinity ligand) and incubated at room temperature with shaking for 30 minutes. The bromodomain concentration in the eluates was measured by qPCR.

BRD4-BD2 = BRD4-BD2 (Homo sapiens (Human), UniProt O60885); assay: bromoKdELECT assay for binding affinity to BRD4-BD2
Method: as §1

PLK1 = PLK1 (Homo sapiens (Human), UniProt P53350); assay: KdELECT assay for binding affinity to PLK1
PLK1, sequence (P53350 whole entry): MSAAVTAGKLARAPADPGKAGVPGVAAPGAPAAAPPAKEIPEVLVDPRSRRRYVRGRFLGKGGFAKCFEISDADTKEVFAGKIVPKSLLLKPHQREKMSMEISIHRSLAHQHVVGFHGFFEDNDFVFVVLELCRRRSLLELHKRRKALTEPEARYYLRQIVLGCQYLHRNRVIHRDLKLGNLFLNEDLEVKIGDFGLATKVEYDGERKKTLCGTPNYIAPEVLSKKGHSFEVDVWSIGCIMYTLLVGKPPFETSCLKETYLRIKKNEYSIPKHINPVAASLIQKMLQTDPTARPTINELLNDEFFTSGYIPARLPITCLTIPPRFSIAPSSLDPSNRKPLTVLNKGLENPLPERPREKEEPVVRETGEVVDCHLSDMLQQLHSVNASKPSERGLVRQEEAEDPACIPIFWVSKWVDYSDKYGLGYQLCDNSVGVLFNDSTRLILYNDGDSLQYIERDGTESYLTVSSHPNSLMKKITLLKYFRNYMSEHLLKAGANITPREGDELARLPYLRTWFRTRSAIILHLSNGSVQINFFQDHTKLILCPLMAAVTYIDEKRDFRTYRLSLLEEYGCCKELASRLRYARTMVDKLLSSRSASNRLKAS
Method: Compounds were tested using a KdELECT assay. Kinase-tagged T7 phage strains were prepared in an E. coli host derived from the BL21 strain. E. coli were grown to log-phase and infected with T7 phage and incubated with shaking at 32° C. until lysis. The lysates were centrifuged and filtered to remove cell debris. The remaining kinases were produced in HEK-293 cells and subsequently tagged with DNA for qPCR detection. Streptavidin-coated magnetic beads were treated with biotinylated small molecule ligands for 30 minutes at room temperature to generate affinity resins for kinase assays. The liganded beads were blocked with excess biotin and washed with blocking buffer (SeaBlock (Pierce), 1% BSA, 0.05% Tween 20, 1 mM DTT) to remove unbound ligand and to reduce non-specific binding. Binding reactions were assembled by combining kinases, liganded affinity beads, and test compounds in 1×binding buffer (20% SeaBlock, 0.17×PBS, 0.05% Tween 20, 6 mM DTT). Test compounds were prepared as 111X stocks in 100% DMSO. Kd values were determined using an 11-point 3-fold compound dilution series with three DMSO control points. All compounds for Kd measurements are distributed by acoustic transfer (non-contact dispensing) in 100% DMSO.
The compounds were then diluted directly into the assays such that the final concentration of DMSO was 0.9%. […] The kinase concentration in the eluates was measured by qPCR.

androgen receptor, sequence (P10275 whole entry, looked up): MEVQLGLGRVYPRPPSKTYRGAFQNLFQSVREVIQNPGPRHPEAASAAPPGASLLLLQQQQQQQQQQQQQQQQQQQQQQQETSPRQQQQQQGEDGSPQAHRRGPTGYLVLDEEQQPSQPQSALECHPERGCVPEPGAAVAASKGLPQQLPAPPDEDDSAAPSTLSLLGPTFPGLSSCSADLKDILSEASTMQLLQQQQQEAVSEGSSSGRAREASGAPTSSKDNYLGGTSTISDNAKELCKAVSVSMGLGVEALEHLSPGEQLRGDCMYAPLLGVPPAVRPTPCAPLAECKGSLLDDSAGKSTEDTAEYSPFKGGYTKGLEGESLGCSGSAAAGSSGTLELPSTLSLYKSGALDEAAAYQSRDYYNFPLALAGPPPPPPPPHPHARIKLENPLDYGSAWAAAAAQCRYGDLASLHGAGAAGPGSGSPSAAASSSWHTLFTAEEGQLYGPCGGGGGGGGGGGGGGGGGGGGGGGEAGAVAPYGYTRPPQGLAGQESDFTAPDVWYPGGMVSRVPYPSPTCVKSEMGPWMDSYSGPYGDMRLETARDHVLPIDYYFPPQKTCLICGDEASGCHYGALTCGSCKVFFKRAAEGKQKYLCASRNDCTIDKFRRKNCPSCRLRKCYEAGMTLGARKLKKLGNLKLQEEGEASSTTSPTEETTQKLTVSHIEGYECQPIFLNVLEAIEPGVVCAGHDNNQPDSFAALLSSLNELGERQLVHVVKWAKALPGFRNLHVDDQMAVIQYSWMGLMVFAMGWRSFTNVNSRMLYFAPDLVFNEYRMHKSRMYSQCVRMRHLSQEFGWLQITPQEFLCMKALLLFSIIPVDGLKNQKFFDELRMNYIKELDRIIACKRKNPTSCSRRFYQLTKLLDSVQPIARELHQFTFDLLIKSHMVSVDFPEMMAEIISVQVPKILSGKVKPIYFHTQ

SMILES | Kd (androgen receptor) | Kd (BRD4-BD1) | Kd (BRD4-BD2) | Kd (PLK1)
Cc1sc2c(c1C)C(c1ccc(Cl)cc1)=N[C@@H](CC(=O)NCCOCCOCCOCCOCCOCCOCCOc1ccc(C(=O)NC3C(C)(C)C(Oc4ccc(C#N)c(Cl)c4)C3(C)C)cc1)c1nnc(C)n1-2 (stereo partly shown) [Compound I-34] | < 50 nM | 50 to 500 nM | 50 to 500 nM | –
CCC1C(=O)N(C)c2cnc(Nc3ccc(C(=O)NCCN(C)C(=O)CO[C@H]4CC[C@H]5[C@@H]6CC[C@H]7CC(=O)CC[C@]7(C)[C@H]6CC[C@]45C)cc3OC)nc2N1C1CCCC1 (stereo partly shown) [Compound I-41] | – | – | – | < 50 nM
